Experimental data as given in article PMC12748989 (Nature Communications, 2025).

Assays:
PBMC = details: 12.5 µM

SMILES	Average (percentage cell inhibition), Dmastoparan MDA-MB231 12.5uM (MDA-MB-231 cells)	Average (percentage cell inhibition), Mastoparan PBMC (PBMC)
CC[C@H](C)[C@H](N)C(=O)N[C@@H](CC(N)=O)C(=O)N[C@@H](CC(C)C)C(=O)N[C@@H](CCCCN)C(=O)N[C@@H](C)C(=O)N[C@@H](CC(C)C)C(=O)N[C@@H](CC(C)C)C(=O)N[C@@H](C)C(=O)N[C@@H](CC(C)C)C(=O)N[C@@H](C)C(=O)N[C@@H](CCCCN)C(=O)N[C@@H](CCCCN)C(=O)N[C@H](C(=O)N[C@@H](CC(C)C)C(N)=O)[C@@H](C)CC [L7]	74.1173%	35.4322%
CC[C@H](C)[C@H](N)C(=O)N[C@@H](C)C(=O)N[C@@H](CC(C)C)C(=O)N[C@@H](CCCCN)C(=O)N[C@@H](C)C(=O)N[C@@H](CC(C)C)C(=O)N[C@@H](C)C(=O)N[C@@H](C)C(=O)N[C@@H](CC(C)C)C(=O)N[C@@H](C)C(=O)N[C@@H](CCCCN)C(=O)N[C@@H](CCCCN)C(=O)N[C@H](C(=O)N[C@@H](CC(C)C)C(N)=O)[C@@H](C)CC [A2]	38.1038%	9.183%
CC[C@H](C)[C@H](N)C(=O)N[C@@H](CC(N)=O)C(=O)N[C@@H](CC(C)C)C(=O)N[C@@H](CCCCN)C(=O)N[C@H](C(=O)N[C@@H](CC(C)C)C(=O)N[C@@H](C)C(=O)N[C@@H](C)C(=O)N[C@@H](CC(C)C)C(=O)N[C@@H](C)C(=O)N[C@@H](CCCCN)C(=O)N[C@@H](CCCCN)C(=O)N[C@H](C(=O)N[C@@H](CC(C)C)C(N)=O)[C@@H](C)CC)[C@@H](C)O [T5]	39.042%	12.9165%
CC[C@H](C)[C@H](N)C(=O)N[C@@H](CC(N)=O)C(=O)N[C@@H](CC(C)C)C(=O)N[C@@H](CCCCN)C(=O)N[C@@H](C)C(=O)N[C@@H](CC(C)C)C(=O)N[C@@H](C)C(=O)N[C@@H](C)C(=O)N[C@@H](CC(C)C)C(=O)N[C@@H](C)C(=O)N[C@@H](CCCCN)C(=O)N[C@H](C(=O)N[C@H](C(=O)N[C@@H](CC(C)C)C(N)=O)[C@@H](C)CC)[C@@H](C)O [T12]	27.1643%	10.5164%
CC[C@H](C)[C@H](N)C(=O)N[C@@H](CC(N)=O)C(=O)N[C@@H](CC(C)C)C(=O)N[C@@H](CCCCN)C(=O)N[C@@H](C)C(=O)N[C@@H](CC(C)C)C(=O)N[C@@H](C)C(=O)N[C@@H](C)C(=O)N[C@@H](CC(C)C)C(=O)N[C@@H](C)C(=O)N[C@@H](CCCCN)C(=O)N[C@@H](CCCCN)C(=O)N[C@@H](C)C(=O)N[C@@H](CC(C)C)C(N)=O [A13]	24.196%	5.573%
CC[C@H](C)[C@H](N)C(=O)N[C@@H](CC(N)=O)C(=O)N[C@@H](CCC(=O)O)C(=O)N[C@@H](CCCCN)C(=O)N[C@@H](C)C(=O)N[C@@H](CC(C)C)C(=O)N[C@@H](C)C(=O)N[C@@H](C)C(=O)N[C@@H](CC(C)C)C(=O)N[C@@H](C)C(=O)N[C@@H](CCCCN)C(=O)N[C@@H](CCCCN)C(=O)N[C@H](C(=O)N[C@@H](CC(C)C)C(N)=O)[C@@H](C)CC [E3]	14.5974%	5.899%
CC[C@H](C)[C@H](N)C(=O)N[C@@H](CC(N)=O)C(=O)N[C@@H](CC(C)C)C(=O)N[C@@H](CC(C)C)C(=O)N[C@@H](C)C(=O)N[C@@H](CC(C)C)C(=O)N[C@@H](C)C(=O)N[C@@H](C)C(=O)N[C@@H](CC(C)C)C(=O)N[C@@H](C)C(=O)N[C@@H](CCCCN)C(=O)N[C@@H](CCCCN)C(=O)N[C@H](C(=O)N[C@@H](CC(C)C)C(N)=O)[C@@H](C)CC [L4]	34.0791%	15.2128%
CC[C@H](C)[C@H](NC(=O)[C@H](CCCCN)NC(=O)[C@H](CCCCN)NC(=O)[C@H](C)NC(=O)[C@H](CC(C)C)NC(=O)[C@H](C)NC(=O)[C@H](C)NC(=O)[C@H](CC(C)C)NC(=O)[C@H](C)NC(=O)[C@H](CCCCN)NC(=O)[C@H](CC(C)C)NC(=O)[C@H](CC(N)=O)NC(=O)[C@@H](N)CC(C)C)C(=O)N[C@@H](CC(C)C)C(N)=O [L1]	57.5292%	20.4049%
CC[C@H](C)[C@H](N)C(=O)N[C@@H](CC(N)=O)C(=O)N[C@@H](CC(C)C)C(=O)N[C@@H](CCCCN)C(=O)N[C@@H](C)C(=O)N[C@@H](CCC(=O)O)C(=O)N[C@@H](C)C(=O)N[C@@H](C)C(=O)N[C@@H](CC(C)C)C(=O)N[C@@H](C)C(=O)N[C@@H](CCCCN)C(=O)N[C@@H](CCCCN)C(=O)N[C@H](C(=O)N[C@@H](CC(C)C)C(N)=O)[C@@H](C)CC [E6]	39.2363%	3.211%
CC[C@H](C)[C@H](N)C(=O)N[C@@H](CC(N)=O)C(=O)N[C@@H](CCCNC(=N)N)C(=O)N[C@@H](CCCCN)C(=O)N[C@@H](C)C(=O)N[C@@H](CC(C)C)C(=O)N[C@@H](C)C(=O)N[C@@H](C)C(=O)N[C@@H](CC(C)C)C(=O)N[C@@H](C)C(=O)N[C@@H](CCCCN)C(=O)N[C@@H](CCCCN)C(=O)N[C@H](C(=O)N[C@@H](CC(C)C)C(N)=O)[C@@H](C)CC [R3]	24.609%	-2.846%
CC[C@H](C)[C@H](N)C(=O)N[C@@H](CC(N)=O)C(=O)N[C@@H](CC(C)C)C(=O)N[C@H](C(=O)N[C@@H](C)C(=O)N[C@@H](CC(C)C)C(=O)N[C@@H](C)C(=O)N[C@@H](C)C(=O)N[C@@H](CC(C)C)C(=O)N[C@@H](C)C(=O)N[C@@H](CCCCN)C(=O)N[C@@H](CCCCN)C(=O)N[C@H](C(=O)N[C@@H](CC(C)C)C(N)=O)[C@@H](C)CC)C(C)C [V4]	32.9047%	3.317%
CC[C@H](C)[C@H](N)C(=O)N[C@@H](CC(N)=O)C(=O)N[C@@H](CC(C)C)C(=O)N[C@@H](CCCCN)C(=O)N[C@@H](C)C(=O)N[C@@H](CC(C)C)C(=O)N[C@@H](C)C(=O)N[C@@H](C)C(=O)N[C@@H](CC(C)C)C(=O)N[C@@H](C)C(=O)N[C@@H](CO)C(=O)N[C@@H](CCCCN)C(=O)N[C@H](C(=O)N[C@@H](CC(C)C)C(N)=O)[C@@H](C)CC [S11]	28.2862%	3.714%
CC[C@H](C)[C@H](NC(=O)[C@H](CCCCN)NC(=O)[C@H](CCCCN)NC(=O)[C@H](C)NC(=O)[C@H](CC(C)C)NC(=O)[C@H](C)NC(=O)[C@H](C)NC(=O)[C@H](CC(C)C)NC(=O)[C@H](C)NC(=O)[C@H](CCCCN)NC(=O)[C@H](CC(C)C)NC(=O)[C@H](CC(N)=O)NC(=O)[C@@H]1CCCN1)C(=O)N[C@@H](CC(C)C)C(N)=O [P1]	43.0723%	-0.6303%
CC[C@H](C)[C@H](N)C(=O)N[C@@H](CC(N)=O)C(=O)N[C@@H](CC(C)C)C(=O)N[C@@H](CCCCN)C(=O)N[C@@H](Cc1ccc(O)cc1)C(=O)N[C@@H](CC(C)C)C(=O)N[C@@H](C)C(=O)N[C@@H](C)C(=O)N[C@@H](CC(C)C)C(=O)N[C@@H](C)C(=O)N[C@@H](CCCCN)C(=O)N[C@@H](CCCCN)C(=O)N[C@H](C(=O)N[C@@H](CC(C)C)C(N)=O)[C@@H](C)CC [Y5]	43.7779%	12.3024%
